Assay results: publication PMC5677254, “Design, Synthesis, and Characterization of N-Oxide-Containing Heterocycles with in Vivo Sterilizing Antitubercular Activity” (Journal of Medicinal Chemistry, 2017)
pIC50: −log10 of the molar value. In brackets after ≈: the same amount, converted by molar mass. Several values for one entry are separate records, joined by “and”; a condition that tells them apart may be missing. Equal values may be shown once. Entries after “also recorded” stand apart in the source; their conditions may differ. Read-outs that look alike come from different tables or passages of the source.

Assays:
Mtb H37Rv (ATCC 27294) = assay: Resazurin microtiter assay (REMA), MIC90 against bacteria in active state; assay type: cell-based; settings: Mycobacterium tuberculosis
[1] = test system: Escherichia coli (ATCC 25922); assay: Spectrum of activity, OD570 after 16 h; assay type: cell-based; settings: ATCC25922, read-out: MIC90 (antimicrobial activity)
Description: (§1) Determination of Minimal Inhibitory Concentration (MIC90) Against Bacteria in Dormant […]
(§2) The selective compounds (SI ≥ 10) were tested against the mycobacterium in a dormant state. The cultures were thawed, diluted in Middlebrook 7H12 broth, and sonicated for 5 s. The cultures were diluted to obtain the concentration between […] and 2 × 10^6 CFU/mL. TwoHfold serial dilutions of the compounds were prepared in a volume of […] in white 96Hwell microtiter plates, followed by the addition of […] of the cell suspension. The microplate cultures were placed under anaerobic conditions (oxygen concentration less than 0.16%) by using an Anoxomat model WS8080 (MART Microbiology) followed by two cycles of evacuation and filling with a mixture of 10% hydrogen (H2), 5% carbon dioxide (CO2), and the balance with nitrogen (N2). An anaerobic indicator strip was placed inside the chamber to visually confirm the removal of oxygen. The plates were incubated at 37°C for 10 days and then transferred to an ambient gaseous condition (5% CO2H enriched air) incubator for a 28 h “recovery.” On day 11 (after the 28Hh aerobic recovery), we determined the luminescence and calculated the MIC90.4
(§3) To establish the spectrum activity, we determined the MIC90 against E. coli (ATCC 25922) and S. aureus (ATCC 29213) by measuring the optical density at 570 nm after 16 h of incubation in Mueller–Hinton II broth (Becton Dickinson, Sparks; Maryland, United States) and against C. albicans (ATCC 10231) at OD570 after 48 h in Cellgro RPMI 1640 medium (Mediatech Inc., Manassas, Virginia, United States). The MIC was defined as the lowest concentration resulting in 90% reduction in absorption relative to that of untreated control cultures.
(§4) Determination of Minimal Inhibitory Concentration Against Isogenic Monoresistant Strains

[2] = test system: Staphylococcus aureus (ATCC 29213); assay: Spectrum of activity, OD570 after 16 h; assay type: cell-based; settings: ATCC29213, read-out: MIC90 (antimicrobial activity)
Description: as §1, §2, §3, §4

[3] = test system: Candida albicans (ATCC 10231); assay: Spectrum of activity, OD570 after 48 h; assay type: cell-based; settings: ATCC10231, read-out: MIC90 (antimicrobial activity)
Description: as §1, §2, §3, §4

[4] = test system: M. tuberculosis H37Rv (ATCC 27294) in J774A.1 macrophages; assay: Intramacrophage activity; assay type: cell-based, Mycobacterium tuberculosis
[5] = test system: M. tuberculosis H37Rv (ATCC 27294); assay: Time-kill curves (bactericidal kinetics); assay type: cell-based, Mycobacterium tuberculosis
human plasma = assay: Plasma protein binding assay (rapid equilibrium dialysis); assay type: in vitro ADME; settings: 5 µM, 4 h at 37°C
Description: (§5) In vitro hydrolysis was performed by HPLC method using a Shimadzu HPLC model CBMH20A (Shimadzu®) and an Agilent® Eclipse XDB C18 column (250 × 4.6 mm, 5 µm). The isocratic flow was 60:40 (water:acetonitrile, v/v) and the flow rate was 1.0 mL/min. The volume injected was 20.0 µL and the wavelength in the detector (UVHVIS) was 210 nm. […]
(§6) of 100 µg/mL. This solution was then diluted to 20 µg/mL using two different PBS buffers to provide the following pH values: 5.5 and 7.4. During the assay, all samples were maintained at constant agitation using a shaker (400 rpm) at 37°C. The aliquots were taken from the solution at the following times: 0, 1, 2, 4, 8, 10, 20, and 24 h. All analyses were conducted in triplicate, and the results were expressed as the averages of the concentrations in percentages (±standard error of the […]
(§7) Plasma Protein Binding Assay […]
of the mixture in a RED (Rapid Equilibrium Dialysis, Pierce) device against PBS and incubated on an orbital shaker for 4 h at 37°C. Aliquots from plasmaH and PBSHbased samples were collected, an equal volume of PBS was added to the plasma sample, and an equal volume of plasma was added to the PBS sample. […] The samples were centrifuged and the supernatant was recovered and analyzed by Liquid chromatography–mass spectrometry (LCHMS)/MS. […]

[6] = Caco-2 permeability assay; assay type: in vitro ADME; settings: human, basolateral to apical
Description: as §5, §6, §7
(§8) of the mixture in a RED (Rapid Equilibrium Dialysis, Pierce) device against PBS and incubated on an orbital shaker for 4 h at 37°C. […] The samples were centrifuged and the supernatant was recovered and analyzed by Liquid chromatography–mass spectrometry (LCHMS)/MS. […]
(§9) the twoHday interval. […] Similarly, for basolateral to apical (B→A) permeability, the compound was added to the B side and the amount of permeation was determined on the A side. […]

Caco-2 cells = assay: Caco-2 permeability assay; assay type: in vitro ADME
Description: as §5, §6, §7, §8, §9

M. tuberculosis Erdman = assay: Infection and treatment: efficacy against acute TB in mice; assay type: in vivo, mouse; settings: 200 mg/kg in microemulsion, once daily oral gavage, 5 days/week, day 10 to 29 postinfection, BALB/c mice
M. tuberculosis H37Rv = assay: Microarray gene expression analysis; assay type: cell-based, Mycobacterium tuberculosis; settings: 4 h of exposure at 2× MIC, versus vehicle
BALB/c mice [7] = settings: H&E, group treated with compound 8
[8] = test system: cytochrome P450 isoforms (all isoforms tested); assay: in vitro; settings: human, microsomes
[9] = Cytotoxicity against MRC-5 cell line; settings: human, cytotoxicity IC50, MRC-5 cell line
[10] = test system: mouse peripheral blood reticulocytes; settings: 50, 100, 200 and 500 mg/kg by gavage, Swiss mice
BALB/c mice [11] = assay: Tolerability test in BALB/c mice and toxicological analysis; settings: 10 days
[12] = 200 mg/kg daily oral, vs control group

For `O=C(N/N=C/c1ccc2no[n+]([O-])c2c1)c1ccncc1` [Compound 8, (E)-6-((2-Isonicotinoylhydrazono)methyl)benzo[c][1,2,5]oxadiazole 1-Oxide], the MIC90 (Mtb H37Rv (ATCC 27294); actively replicating M. tuberculosis H37Rv, REMA, read-out: MIC90) was 1.1 µM and 0.31 µg/mL, the MIC90 (Mtb H37Rv (ATCC 27294); supplementary CSV, read-out: Mtb MIC90) was 1.1 µM (≈ 0.312 µg/mL) and the MIC90 [1] was greater than 200 µM. For the same molecule, the MIC90 [2] was greater than 200 µM, the MIC90 [3] was greater than 200 µM and the intracellular inhibition [4] was “around 90%”. For the same molecule, the “reduction of CFU (sterilization of cultures)” value ([5]; after 48 h of exposure, 41.24 μM) was roughly 6.7 log10, the bactericidal profile ([5]; time-kill kinetic experiments up to 15 days) was “bactericidal with an early bactericidal effect” and the “human plasma protein binding (% free)” value (human plasma) was 46.5 % free. The Papp B→A [6] was 3.9 ×10⁻⁶ cm/s, the Caco-2 permeability profile (Caco-2 cells) was “good permeability profile” and the “Mtb colonies (CFU) in homogenized lungs” value (M. tuberculosis Erdman) was “reduction of Mtb to undetectable levels; also recorded: no colonies were observed; also recorded: No detectable Mtb”. The “effect on gene expression” value (M. tuberculosis H37Rv) was “significant upregulation in the majority of ribosomal genes as well as all genes encoding subunits of ATP synthase”, the histology of kidneys (BALB/c mice [7]) was “morphologically normal” and the pIC50 [8] was less than 4.82. The IC50 [9] was 147 µg/mL (≈ 519 µM), the “genotoxicity (micronucleated reticulocytes)” value [10] was “not genotoxic at any concentration tested” and the “behavior parameters (hippocratic screening)” value (BALB/c mice [11]; 200 mg/kg daily oral gavage) was “No significant variation in the behavior”. For the same molecule, the “alanine aminotransferase in plasma” value (BALB/c mice [11]; [12]) was “no significant differences”, the “alkaline phosphatase in plasma” value (BALB/c mice [11]; [12]) was “no significant differences” and the “aspartate aminotransferase in plasma” value (BALB/c mice [11]; [12]) was “no significant differences”. The “changes in the weight of organs (heart, lungs, spleen, kidneys, liver)” value (BALB/c mice [11]; [12]) was “No statistically significant difference”.
